Data: patent US20080003691A1, “Method of Detecting Conformational Change of an Amyloid Protein, a Method of Searching a Substance Having an Activity that Affects to Conformational Change of an Amyloid Protein, and Method of Searching a Therapeutic or Diagnostic Agent for Amyloid-Related Diseases” (Fuence Co., Ltd., priority 2004, published 2008)
Blank lines part the entries; values can stand above or below the molecule they belong to.

Columns and labels:
amyloid β (1-42) = biological target: T1, amyloid β (1-42) (Homo sapiens, UniProt P05067); experiment: changes in tension and elasticity of amyloid β (1-42) film measured with a mechanochemical sensor; assay type: biochemical
T1 construct: Amyloid β (1-42) (Bachem AG, Budendorf, Switzerland); purchased Bachem AG
T1 sequence (P05067 672-713): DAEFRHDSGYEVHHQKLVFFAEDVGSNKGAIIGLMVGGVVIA
Experimental: (§1) Amyloid β (1-42) (Bachem AG, Budendorf, Switzerland) was dissolved in 0.1% ammonia water at the concentration of 1 mg/mL. This solution was sprayed under dry air using an electrospry device described in WO 2002-511792 or an immobilzing device described in Japanese Patent Publication No. 2003-136005. The solution was permeated through a mask with holes of 400 μm in length and 800 μm in width, and then a film having 1 μm thickness was prepared on 1.2% polyvinyl pyrrolidone, using an electrospray method (the EDS method). Then protein was cross-linked by glutaraldehyde.
(§2) The resulting film was placed on an apparatus having a mechanochemical sensor which was described in WO 2002-503332 or U.S. Patent Publication No. 6033913, and it was immersed into 10 mM Hepes pH7.4 buffer solution (hereinafter referred to as “the buffer solution”) containing 0.15 M NaCl. The buffer solution was passed through the film existing on the detecting apparatus at the flow rate of 0.1 to 0.2 mL/min, in order to stabilize the tension of the sample film. Thereafter ZnCl2 solution dissolved in said buffer solution was passed through to detect changes in tension and elasticity (FIG. 1).
In FIG. 1, a place where the line uprises from the horizontal state (i.e. steady state), means a point where tension is given to the sample film, and compliance is detected where the line oscillates. […] It is assumed that the particular interaction referred herein is aggregation of amyloid β (1-42) caused by Zn^2+, when considered with many reports such as X. Huang et. al., (J. Biol. Chem., 1997, 272, 26464), C. S. Atwood et. al., (J. Biol. Chem., 1998, 273, 12817), or R. A. Cherny et. al., (Neuron, 2001, 30, 665).
Further, concentration of ZnCl2 was altered from 0.01 mM to 3 mM, in order to examine the effect of ZnCl2 concentration (FIG. 2).
An amyloid β (1-42) membrane was prepared and placed on a detecting apparatus, as described in EXAMPLE 1. The changes in tension and elasticity of the membrane, by CuCl2 dissolved in the buffer solution, were examined (FIG. 3). […] It has been reported that Cu^2+, as well as Zn^2+, facilitates aggregation of amyloid β.

α-synuclein = biological target: T2, α-synuclein (Homo sapiens, UniProt P37840); experiment: changes in tension and elasticity of α-synuclein film measured with a mechanochemical sensor; assay type: biochemical; conditions: FIG. 4
T2 construct: purchased BIOMOL International LP
Experimental: as §1, §2
A α-synuclein (BIOMOL International LP, PA, USA) film was prepared and placed on a detecting apparatus, as described in EXAMPLE 1. […]

- change in tension and elasticity of the amyloid β (1-42) membrane by CuCl2 (amyloid β (1-42); CuCl2 dissolved in the buffer solution, FIG. 3): concentration-dependent change
Structure (SMILES): [Cl][Cu][Cl] [CuCl2]

- change in elasticity with respect to ZnCl2 concentration (amyloid β (1-42); ZnCl2 0.01 mM to 3 mM, FIG. 2): concentration-dependent
- isotropic tension and compliance (the inverse of stiffness) of the amyloid β (1-42) film (amyloid β (1-42); ZnCl2 solution in 10 mM Hepes pH7.4, 0.15 M NaCl passed over the film, FIG. 1): remarkably increased
- change in tension and elasticity of the α-synuclein film by ZnCl2 (α-synuclein; ZnCl2 dissolved in the buffer solution): concentration-dependent change
Structure (SMILES): [Cl-].[Cl-].[Zn+2] [ZnCl2]

- tension and elasticity of the film after EDTA, relative to the state prior to addition of ZnCl2 (amyloid β (1-42); amyloid β (1-42) film previously exposed to ZnCl2, FIG. 1): restored
Structure (SMILES): O=C(O)CN(CCN(CC(=O)O)CC(=O)O)CC(=O)O [EDTA]
- tension after EDTA, relative to the state prior to addition of CuCl2 (amyloid β (1-42); amyloid β (1-42) membrane previously exposed to CuCl2, FIG. 3): restored by EDTA almost to the state prior to addition of CuCl2
- tension after EDTA, relative to the state prior to addition of ZnCl2 (α-synuclein; α-synuclein film previously exposed to ZnCl2): restored by EDTA almost to the state prior to addition of ZnCl2
